PubChem BioAssay (NCI)
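Interpolation was linear, between the two tested concentrations surrounding the appropriate level; five concentrations were tested over 48 hours in 96-well plates. Here, GI50 denotes the concentration required for 50% inhibition of growth. At the TGI there is no net growth.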

Tests used:
Test in all cases: NCI-60 cell line screen, 48 h
786-0 renal = test system: 786-0 renal
A498 renal = test system: A498 renal
A549 NSCLC = test system: A549 NSCLC
ACHN renal = test system: ACHN renal
BT-549 breast = test system: BT-549 breast
CAKI-1 renal = test system: CAKI-1 renal
CCRF-CEM leukemia = test system: CCRF-CEM leukemia
COLO 205 colon = test system: COLO 205 colon
DU-145 prostate = test system: DU-145 prostate
EKVX NSCLC = test system: EKVX NSCLC
HCC-2998 colon = test system: HCC-2998 colon
HCT-116 colon = test system: HCT-116 colon
HCT-15 colon = test system: HCT-15 colon
HL-60(TB) leukemia = test system: HL-60(TB) leukemia
HOP-62 NSCLC = test system: HOP-62 NSCLC
HOP-92 NSCLC = test system: HOP-92 NSCLC
HS 578T breast = test system: HS 578T breast
HT29 colon = test system: HT29 colon
IGROV1 ovarian = test system: IGROV1 ovarian
K-562 leukemia = test system: K-562 leukemia
KM12 colon = test system: KM12 colon
LOX IMVI melanoma = test system: LOX IMVI melanoma
M14 melanoma = test system: M14 melanoma
MALME-3M melanoma = test system: MALME-3M melanoma
MCF7 breast = test system: MCF7 breast
MDA-MB-231 breast = test system: MDA-MB-231 breast
MDA-MB-435 = test system: MDA-MB-435
MOLT-4 leukemia = test system: MOLT-4 leukemia
NCI-H226 lung = test system: NCI-H226 lung
NCI-H23 lung = test system: NCI-H23 lung
NCI-H460 lung = test system: NCI-H460 lung
NCI-H522 lung = test system: NCI-H522 lung
NCI/ADR-RES ovarian = test system: NCI/ADR-RES ovarian
OVCAR-3 ovarian = test system: OVCAR-3 ovarian
OVCAR-4 ovarian = test system: OVCAR-4 ovarian
OVCAR-5 ovarian = test system: OVCAR-5 ovarian
OVCAR-8 ovarian = test system: OVCAR-8 ovarian
PC-3 prostate = test system: PC-3 prostate
RPMI-8226 leukemia = test system: RPMI-8226 leukemia
RXF 393 renal = test system: RXF 393 renal
SF-268 CNS = test system: SF-268 CNS
SF-295 CNS = test system: SF-295 CNS
SF-539 CNS = test system: SF-539 CNS
SK-MEL-2 melanoma = test system: SK-MEL-2 melanoma
SK-MEL-28 melanoma = test system: SK-MEL-28 melanoma
SK-MEL-5 melanoma = test system: SK-MEL-5 melanoma
SK-OV-3 ovarian = test system: SK-OV-3 ovarian
SN12C renal = test system: SN12C renal
SNB-19 CNS = test system: SNB-19 CNS
SNB-75 CNS = test system: SNB-75 CNS
SW-620 colon = test system: SW-620 colon
T-47D breast = test system: T-47D breast
TK-10 renal = test system: TK-10 renal
U251 CNS = test system: U251 CNS
UACC-257 melanoma = test system: UACC-257 melanoma
UACC-62 melanoma = test system: UACC-62 melanoma
UO-31 renal = test system: UO-31 renal

Molecule C1=C/COCc2cc(ccc2OCCN2CCCC2)Nc2nccc(n2)-c2ccc(o2)COC/1 has a GI50 (786-0 renal) of 2.71 µM, a TGI (786-0 renal) of 13 µM and a GI50 (A498 renal) of 1.52 µM. It also gave a TGI (A498 renal) of 3.57 µM, a GI50 (A549 NSCLC) of 2.23 µM and a TGI (A549 NSCLC) of 12 µM. For the same molecule, the GI50 (ACHN renal) was 0.699 µM, the TGI (ACHN renal) was 11.8 µM and the GI50 (BT-549 breast) was 2.18 µM. It also gave a TGI (BT-549 breast) of 4.95 µM, a GI50 (CAKI-1 renal) of 0.46 µM and a TGI (CAKI-1 renal) of 3.28 µM. The GI50 (CCRF-CEM leukemia) was 2.06 µM, the TGI (CCRF-CEM leukemia) was 7.2 µM and the GI50 (COLO 205 colon) was 1.29 µM. It also gave a TGI (COLO 205 colon) of 2.75 µM, a GI50 (DU-145 prostate) of 1.57 µM and a TGI (DU-145 prostate) of 13.8 µM. It also gave a GI50 (EKVX NSCLC) of 1.88 µM, a TGI (EKVX NSCLC) of 5.89 µM and a GI50 (HCC-2998 colon) of 2.18 µM. The TGI (HCC-2998 colon) was 7.93 µM, the GI50 (HCT-116 colon) was 0.757 µM and the TGI (HCT-116 colon) was 10.6 µM. The GI50 (HCT-15 colon) was 1.11 µM, the TGI (HCT-15 colon) was 9.11 µM and the GI50 (HL-60(TB) leukemia) was 0.729 µM. It also gave a TGI (HL-60(TB) leukemia) of 6.27 µM, a GI50 (HOP-62 NSCLC) of 2.28 µM and a TGI (HOP-62 NSCLC) of 6.91 µM. For the same molecule, the GI50 (HOP-92 NSCLC) was 2.21 µM, the TGI (HOP-92 NSCLC) was 9.47 µM and the GI50 (HS 578T breast) was 1.89 µM. The TGI (HS 578T breast) was 6.77 µM, the GI50 (HT29 colon) was 1.33 µM and the TGI (HT29 colon) was 7.33 µM. The GI50 (IGROV1 ovarian) was 0.626 µM, the TGI (IGROV1 ovarian) was 6.57 µM and the GI50 (K-562 leukemia) was 2.65 µM. It also gave a TGI (K-562 leukemia) greater than 33.1 µM, a GI50 (KM12 colon) of 0.451 µM and a TGI (KM12 colon) of 9.37 µM. The GI50 (LOX IMVI melanoma) was 0.817 µM, the TGI (LOX IMVI melanoma) was 2.29 µM and the GI50 (M14 melanoma) was 1.56 µM. The TGI (M14 melanoma) was 9.09 µM, the GI50 (MALME-3M melanoma) was 1.4 µM and the TGI (MALME-3M melanoma) was 3.69 µM. It also gave a GI50 (MCF7 breast) of 0.734 µM, a TGI (MCF7 breast) of 3.84 µM and a GI50 (MDA-MB-231 breast) of 1.97 µM. It also gave a TGI (MDA-MB-231 breast) of 7.9 µM, a GI50 (MDA-MB-435) of 1.2 µM and a TGI (MDA-MB-435) of 3.73 µM. It also gave a GI50 (MOLT-4 leukemia) of 1.63 µM, a TGI (MOLT-4 leukemia) of 5.57 µM and a GI50 (NCI-H226 lung) of 1.74 µM. It also gave a TGI (NCI-H226 lung) of 6.13 µM, a GI50 (NCI-H23 lung) of 1.61 µM and a TGI (NCI-H23 lung) of 5.24 µM. For the same molecule, the GI50 (NCI-H460 lung) was 1.16 µM, the TGI (NCI-H460 lung) was 4.5 µM and the GI50 (NCI-H522 lung) was 1.84 µM. The TGI (NCI-H522 lung) was 6.13 µM, the GI50 (NCI/ADR-RES ovarian) was 2.9 µM and the TGI (NCI/ADR-RES ovarian) was 8.62 µM. It also gave a GI50 (OVCAR-3 ovarian) of 1.99 µM, a TGI (OVCAR-3 ovarian) of 8.48 µM and a GI50 (OVCAR-4 ovarian) of 2.33 µM. It also gave a TGI (OVCAR-4 ovarian) of 10.4 µM, a GI50 (OVCAR-5 ovarian) of 0.716 µM and a TGI (OVCAR-5 ovarian) of 3.8 µM. For the same molecule, the GI50 (OVCAR-8 ovarian) was 2.59 µM, the TGI (OVCAR-8 ovarian) was 18.8 µM and the GI50 (PC-3 prostate) was 1.17 µM. The TGI (PC-3 prostate) was 21.4 µM, the GI50 (RPMI-8226 leukemia) was 2.29 µM and the TGI (RPMI-8226 leukemia) was 5.21 µM. The GI50 (RXF 393 renal) was 0.397 µM, the TGI (RXF 393 renal) was 1.64 µM and the GI50 (SF-268 CNS) was 1.69 µM. It also gave a TGI (SF-268 CNS) of 4.45 µM, a GI50 (SF-295 CNS) of 2.74 µM and a TGI (SF-295 CNS) of 8.02 µM. The GI50 (SF-539 CNS) was 1.72 µM, the TGI (SF-539 CNS) was 3.33 µM and the GI50 (SK-MEL-2 melanoma) was 1.46 µM. It also gave a TGI (SK-MEL-2 melanoma) of 4 µM, a GI50 (SK-MEL-28 melanoma) of 1.65 µM and a TGI (SK-MEL-28 melanoma) of 5.26 µM. For the same molecule, the GI50 (SK-MEL-5 melanoma) was 1.79 µM, the TGI (SK-MEL-5 melanoma) was 4.07 µM and the GI50 (SK-OV-3 ovarian) was 2.44 µM. For the same molecule, the TGI (SK-OV-3 ovarian) was 7.53 µM, the GI50 (SN12C renal) was 0.99 µM and the TGI (SN12C renal) was 5 µM. The GI50 (SNB-19 CNS) was 2.93 µM, the TGI (SNB-19 CNS) was 13.5 µM and the GI50 (SNB-75 CNS) was 1.25 µM. The TGI (SNB-75 CNS) was 2.75 µM, the GI50 (SW-620 colon) was 2.36 µM and the TGI (SW-620 colon) was 11.7 µM. The GI50 (T-47D breast) was 1.21 µM, the TGI (T-47D breast) was 7.33 µM and the GI50 (TK-10 renal) was 2.42 µM. It also gave a TGI (TK-10 renal) of 12 µM, a GI50 (U251 CNS) of 3.07 µM and a TGI (U251 CNS) of 14.7 µM. It also gave a GI50 (UACC-257 melanoma) of 1.52 µM, a TGI (UACC-257 melanoma) of 3.43 µM and a GI50 (UACC-62 melanoma) of 1.42 µM. The TGI (UACC-62 melanoma) was 3.08 µM, the GI50 (UO-31 renal) was 1.06 µM and the TGI (UO-31 renal) was 7.06 µM.
